Series [1] concerns the target GST-ERα-LBD (Homo sapiens (Human), UniProt P03372). Kind of series: ERα TR-FRET test. In kind it is biochemical. The note with it: estradiol final concentration 1.5 nM, biotin-SRC2. As to the method:
1× Tris-HCl (Sigma, PHG0002) protein buffer was prepared and mixed for later use. The compound to be detected was prepared into a stock solution with a concentration of 2 mM and then subjected to serial 3-fold gradient dilution, resulting in a total of 10 concentrations.
Preparation of 1× protein mixed solution: firstly, 2× GST-ERα-LBD (Invitrogen, A15677)/MAb anti-GST-Eu (Cisbio, 61GSTKLA) mixed solution was prepared according to the following table.
2× biotin-SRC2/streptavidin-XL665 (Cisbio, 610SAXLA) mixed solution was prepared.
The above 2× GST-NR-LBD/ MAb anti-GST-Eu solution and 2× biotin-SRC2/streptavidin-XL665 solution were uniformly mixed at a volume ratio of 1:1; and the 1× protein mixed solution was added to each well of a 384-well plate, with 20 μL being added per well, the 384-well plate was put into a centrifuge and centrifuged at room temperature at 1000 rpm for 10 seconds, and it was taken out, then left to stand at room temperature for 3 h, and then read by EnVision multifunctional microplate reader.
The inhibition rate was calculated according to the following formula: […]
The data were imported into Graphpad Prism, and Log(agonist) vs. response-variable slope was used for curve fitting.
Y=Bottom+(Top−Bottom)/(1+10^((LogEC50−X)*HillSlope)) Fitting formula

The target of series [2] is ERα (Homo sapiens (Human), UniProt P03372). Kind of series: Degradation effect of compound on ERα (ERα DuoSet IC ELISA in MCF-7 cells). In kind it is cell-based. The note with it: 24 h with compound, read-out: IC50 value of ERα degradation by compound. As to the method: In this test example, ERα DuoSet IC ELISA Kit (R&D, DYC5715) was used to detect the degradation effect of the compound on ERα. On the first day of the experiment, human breast cancer cells MCF-7 (the source was as above) were inoculated into a 24-well plate. The culture medium was an MEM culture medium containing 10% of activated-carbon-treated FBS (Tocyto, UT61204), 1% of pyruvic acid and 1% of nonessential amino acid. The inoculation density was 150,000 cells/well. The cells were cultured at 37° C., 5% CO2 for 24 h.
On the second day of the experiment, the compound to be tested was diluted in gradient and added to a 24-well plate containing cells. The cells were cultured for 24 h at 37° C., 5% CO2. ERα capture antibody was diluted to 1 μg/ml with PBS (Corning, 21-040-CVR) and added to a 96-well plate at 100 μL/well, and the plate was […] coated overnight at room temperature.
On the third day of the experiment, the coated 96-well plate was washed three times with PBS, 300 μL of a blocking solution (R&D, DY995) was added to each well, and the plate was blocked at room temperature for 1 h. The 24-well plate was washed once with PBS, and the residual liquid was sucked off. […] The diluted cell lysate was taken and added to the blocked 96-well plate, with 100 μL per well, and incubated at room temperature for 2 h. The plate was washed three times with a washing solution (R&D, WA126), and a primary antibody was then added. After incubation for 1 h, the 96-well plate was washed four times, a secondary antibody was added, and incubation was carried out at room temperature in the dark for 30 min. The plate was washed four times with the washing solution, and TMB (R&D, DY999) was added. After 15 minutes of development, the reaction was terminated with a stop solution (R&D, DY994), and the light absorption at 450 nm was read.

A short description of series [3]: Stability in human liver microsomes in vitro. In kind it is in vitro ADME. The note with it: human liver microsomes; for half-life: microsome protein 1 mg/mL working solution, NADPH; for CLint scaled: scaled to liver; for microsomal CLint: read-out: CLint(mic). As for the experimental part: Test Example 4: Test for Stability in Human Liver Microsomes In Vitro Eight 96-well incubation plates were prepared and named [NT], Blank60 and NCF60, respectively. […] No test compound or control compound was added to Blank60 plate, and samples were taken after incubation for 60 min. NCF60 plate was incubated with a potassium phosphate buffer instead of an NADPH regeneration system solution (Sigma, N0505) for 60 min. […] Only the microsome working solution was added to Blank60 plate, and the incubation plates Blank60, T5, T15, T30, T45 and T60 except T0 and NCF60 were then placed in a water bath at 37° C. and pre-incubated for about 10 min. To the samples of T0 plate, 600 μL of a stop solution (acetonitrile:methanol (95:5, v/v) solution containing 100 ng/mL of tolbutamide (Sigma, T0891)) was added first, and the NADPH regeneration system working solution was then added. 98 μL of a potassium phosphate buffer was added to each well of NCF60 plate and incubated for 60 min. After the pre-incubation in the incubation plates Blank60, T5, T15, T30, T45 and T60 was completed, 98 μL of the NADPH regeneration system working solution was added to each sample well to initiate the reaction. After an appropriate incubation time (such as 5, 15, 30, 45 and 60 min), 600 μL of a stop solution was added to each sample well and the control sample well in Blank60, […] the reaction. All the sample plates were shaken uniformly and centrifuged at 3220×g for 20 min. 200 μL of test sample supernatant was separately taken and diluted in 200 μL of an aqueous solution containing 0.3% formic acid for LC-MS/MS analysis, and 100 μL of control sample supernatant was taken and diluted in 300 μL of pure water for LC-MS/MS analysis. Calculation was performed according to the following formula: [formula] [formula] [formula] [formula] [formula] [formula]

Series [4] concerns Human breast cancer cells MCF-7. Kind of series: MCF-7 cell proliferation experiment. In kind it is cell-based. The note with it: Homo sapiens, MCF7; MCF-7 cells, 72 hours, Cell Titer-Glo. As for the experimental part: Test Example 2: MCF-7 Cell Proliferation Experiment
Human breast cancer cells MCF-7 (HTB-22, purchased from ATCC) were inoculated into a 96-well plate. The culture medium was an MEM (Hyclone, SH30024.01B) culture medium containing 10% of FBS (Gibco, 10099-141), 1% of pyruvic acid (Sigma, S8636), and 1% of nonessential amino acid (Sigma, M7145), and the inoculation density was 4,000 cells/well. The cells were cultured at 37° C., 5% CO2. The compound was prepared into a 20 mM stock solution, which was subjected to gradient dilution to a final concentration of […] with 100% DMSO (Sigma, D2650) and then diluted 20 folds with a culture medium containing 2% of FBS. After 24 hours of culture, the culture medium was removed, 90 μL of a culture medium containing 2% of FBS and 10 μL of drug were added to each well, while 10 μL of DMSO was added to the control group, and they were gently shaken and mixed. The blank group only contained 100 μL of 2% FBS culture medium. They were placed in an incubator and cultured at 37° C., 5% CO2. After 72 hours, 50 μL of mixed Cell Titer-Glo (Promega, G7571) was added. They were shaken and mixed uniformly, and placed at room temperature for 10 min. The chemiluminescence signal value was determined. The negative control was 0.5% DMSO well.

pIC50: −log10 of the molar value.

ERα, sequence (P03372 whole entry): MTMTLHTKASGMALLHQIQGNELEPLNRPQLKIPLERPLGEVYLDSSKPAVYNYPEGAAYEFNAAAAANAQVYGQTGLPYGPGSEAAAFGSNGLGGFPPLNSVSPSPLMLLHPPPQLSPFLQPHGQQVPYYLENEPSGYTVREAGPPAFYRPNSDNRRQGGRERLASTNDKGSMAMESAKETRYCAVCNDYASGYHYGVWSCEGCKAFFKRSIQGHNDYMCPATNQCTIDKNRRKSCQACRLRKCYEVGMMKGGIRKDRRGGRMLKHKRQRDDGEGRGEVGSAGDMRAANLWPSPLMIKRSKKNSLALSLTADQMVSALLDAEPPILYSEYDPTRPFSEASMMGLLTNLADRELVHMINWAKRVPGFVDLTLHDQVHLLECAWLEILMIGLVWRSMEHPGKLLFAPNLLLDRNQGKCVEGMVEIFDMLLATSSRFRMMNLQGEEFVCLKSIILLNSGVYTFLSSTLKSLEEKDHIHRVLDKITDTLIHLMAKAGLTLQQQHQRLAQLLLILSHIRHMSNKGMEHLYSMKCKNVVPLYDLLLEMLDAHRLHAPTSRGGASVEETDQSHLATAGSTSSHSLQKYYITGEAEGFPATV
GST-ERα-LBD, sequence (P03372 311-547): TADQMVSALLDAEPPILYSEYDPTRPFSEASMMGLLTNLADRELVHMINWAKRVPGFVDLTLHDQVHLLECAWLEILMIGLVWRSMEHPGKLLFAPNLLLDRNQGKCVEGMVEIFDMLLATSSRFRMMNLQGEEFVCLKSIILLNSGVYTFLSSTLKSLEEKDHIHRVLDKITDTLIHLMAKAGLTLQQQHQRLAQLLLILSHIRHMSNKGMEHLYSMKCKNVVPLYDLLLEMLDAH

`COc1cc(NC2CN(CCCF)C2)ccc1[C@@H]1c2ccc3[nH]c(=O)oc3c2C[C@@H](C)N1CC1(F)CC1` [Example 31] gave a pIC50 in series [1] of 7.34. In addition, in series [2], the DC50 was determined as 0.75 nM. Moreover, in series [3], the half-life came out at 1.39 h, the CLint scaled was 18.4 mL/min/kg and the microsomal CLint came to 17.5 µL/min/mg. The same molecule gave a pIC50 in series [4] of 9.07.
As to `C[C@@H]1Cc2c(ccc3[nH]c(=O)oc23)[C@@H](c2c(F)cc(NC3CN(CCCF)C3)cc2F)N1CC(F)(F)CO` [Example 9, (6S,8R)-7-(2,2-difluoro-3-hydroxypropyl)-6-(2,6-difluoro-4-((1-(3-fluoropropyl)azetidin-3-yl)amino)phenyl)-8-methyl-6,7,8,9-tetrahydrooxazolo[5,4-f]isoquinolin-2(3H)-one], the figures for the pIC50 in series [1] and in series [4] were 7.67 and 9.72, respectively. For the same molecule, in series [2], the DC50 is 0.39 nM.
In series [1], `COc1cc(NC2CN(CCCF)C2)cc(Cl)c1[C@@H]1c2ccc3[nH]c(=O)oc3c2C[C@@H](C)N1CC(F)(F)F` [Example 33, (6S,8R)-6-(4-((1-(3-fluoropropyl)azetidin-3-yl)amino)-2-methoxy-6-chloro-phenyl)-8-methyl-7-(2,2,2-trifluoroethyl)-6,7,8,9-6,7,8,9-tetrahydrooxazolo[5,4-f]isoquinolin-2(3H)-one] gave a pIC50 of 7.93. For the same molecule, the DC50 in series [2] came to 0.35 nM. Moreover, in series [3], the half-life turned out to be 1.85 h, the CLint scaled is 7.9 mL/min/kg and the microsomal CLint stood at 8.3 µL/min/mg. In series [4], this molecule showed a pIC50 of 9.41.
Take `COc1cc(NC2CN(CCCF)C2)ccc1[C@@H]1c2ccc3[nH]c(=O)oc3c2C[C@@H](C)N1CC(C)(F)F` [Example 32]: the pIC50 in series [1] is 7.83. Further, the DC50 in series [2] is 0.42 nM. In series [3], the half-life was 1.71 h, the intrinsic metabolic clearance (CLint scaled) is 9 mL/min/kg and the microsomal CLint is 9.8 µL/min/mg. This molecule also showed a pIC50 in series [4] of 9.41.
Take `COc1cc(O[C@H]2CCN(CCCF)C2)ccc1[C@@H]1c2ccc3[nH]c(=O)oc3c2C[C@@H](C)N1CC(F)(F)F` [Example 30, (6S,8R)-6-(4-(((S)-1-(3-fluoropropyl)pyrrolidin-3-yl)oxy)-2-methoxyphenyl)-8-methyl-7-(2,2,2-trifluoroethyl)-6,7,8,9-tetrahydroxazolo[5,4-f]isoquinolin-2(3H)-one]: the pIC50 in series [1] was 8.05. In addition, in series [2], the DC50 worked out at 0.35 nM. Also, in series [3], the half-life is 1.58 h, the CLint scaled was 14.4 mL/min/kg and the microsomal CLint was found to be 15.8 µL/min/mg. For the same molecule, the pIC50 in series [4] was 9.68.
As for `C[C@@H]1Cc2c(ccc3[nH]c(=O)oc23)[C@@H](c2c(F)cc(N3CC4(CN(CCF)C4)C3)cc2F)N1CC(F)(F)CO` [Example 14, (6S,8R)-7-(2,2-difluoro-3-hydroxypropyl)-6-(2,6-difluoro-4-(6-(2-fluoroethyl)-2,6-diazspiro[3.3]hept-2-yl)phenyl)-8-methyl-6,7,8,9-tetrahydrooxazolo[5,4-f]isoquinolin-2(3H)-one], in series [1], the pIC50 was 7.39. Also, in series [3], the half-life was found to be 1.82 h, the intrinsic clearance (CLint scaled) amounted to 8.7 mL/min/kg and the microsomal CLint worked out at 9.5 µL/min/mg. Besides, the pIC50 in series [4] was 9.36.
Take `C[C@@H]1Cc2c(ccc3[nH]c(=O)oc23)[C@@H](c2ccc(NC3CN(CCCF)C3)cn2)N1CC(F)(F)F` [Example 26, (6S,8R)-6-(5-((1-(3-fluoropropane)azetidin-3-yl)amino)pyridin-2-yl)-8-methyl-7-(2,2,2-trifluoroethyl)-6,7,8,9-tetrahydroxazolo[5,4-f]isoquinolin-2(3H)-one]: the pIC50 in series [1] is 7.23; in series [4] it was 9.26.
